We go through two compounds from paper PMC4077311, “A Huge PVDF Adsorption Difference Between Resveratrol and ε-Viniferin Allows to Quantitatively Purify Them and to Assess Their Anti-Tyrosinase Property” (Chromatographia, 2014).

For this assay, the target named is Mushroom tyrosinase (Agaricus bisporus, UniProt C7FF04). The experiment in a line: Tyrosinase L-DOPA oxidase inhibition activity.

Each structure is given as a SMILES string.

Chain of Mushroom tyrosinase (G1K3P4 entry or part of it): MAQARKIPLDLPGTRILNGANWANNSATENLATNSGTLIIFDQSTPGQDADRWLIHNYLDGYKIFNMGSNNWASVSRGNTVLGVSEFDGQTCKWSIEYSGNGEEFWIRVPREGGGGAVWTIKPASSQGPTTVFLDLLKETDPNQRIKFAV
Chain of Mushroom tyrosinase (C7FF04 1-392): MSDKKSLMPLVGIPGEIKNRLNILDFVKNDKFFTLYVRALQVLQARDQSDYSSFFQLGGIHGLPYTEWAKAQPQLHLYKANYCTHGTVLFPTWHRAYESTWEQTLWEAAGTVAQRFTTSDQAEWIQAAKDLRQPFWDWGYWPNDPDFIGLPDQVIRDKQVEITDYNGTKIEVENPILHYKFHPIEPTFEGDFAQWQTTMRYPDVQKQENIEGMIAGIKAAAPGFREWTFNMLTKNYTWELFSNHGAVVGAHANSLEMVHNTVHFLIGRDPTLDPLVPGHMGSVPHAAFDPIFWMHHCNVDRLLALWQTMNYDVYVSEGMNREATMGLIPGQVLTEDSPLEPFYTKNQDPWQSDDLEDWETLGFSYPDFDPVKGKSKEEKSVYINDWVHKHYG
Method: Then, 40 μL L-DOPA (2.5 mM) and 80 μL phosphate buffer were added to the solution. Optical density (OD) of each assay, relative to the control, was measured at 492 nm by using a microplate reader (Tecan® Infinite M200 spectrophotometer).
Results expression: Inhibition of enzyme activity by each sample is expressed as % inhibition compared to the control and represented by the following equation: [1 − (ODsample × ODcontrol^−1)] × 100.

For the compound `Oc1ccc(C=Cc2cc(O)cc3c2[C@H](c2cc(O)cc(O)c2)[C@@H](c2ccc(O)cc2)O3)cc1` [trans-ε-Viniferin 2, 5-[(2S, 3S)-6-hydroxy-2-(4-hydroxyphenyl)-4-(4-hydroxystyryl)-2,3-dihydrobenzofuran-3-yl]benzene-1,3-diol], the “Tyrosinase inhibitory activity in words” value was “the most active tyrosinase inhibitor ever tested by us”.

Consider `Oc1ccc(/C=C/c2cc(O)cc(O)c2)cc1` [trans-Resveratrol 1, (E)-5-(4-hydroxystyryl)benzene-1,3-diol], for which the “Tyrosinase inhibitory activity in words” value is listed as “moderate inhibitory activity”.
